Assay results published in patent publication US12465582B2, “(S)-2-amino-6-((3-aminopropyl)amino)hexanoic acid (APL) for use in the treatment of non-alcoholic steatohepatitis (NASH), liver inflammation, hepatocellular ballooning, liver fibrosis and steatosis” (Temple University—Of The Commonwealth System Of Higher …, priority 2020, dated 2025).

Assays:
Assay type in all cases: in vivo
[1] = test system: Zucker fa/fa obese rats; assay: Glucose tolerance test (GTT) in Zucker rat model of NASH; conditions: 100 mg/kg APL p.o. b.i.d., 78 days, **p<0.01
Excerpt: Zucker fa/fa obese rats and Zucker Fa/fa lean rats (7-week old male animals obtained from Charles Rivers Laboratories, Wilmington, MA, USA) were maintained in individual cages (1 rat per cage to encourage sedentary activity) and had free access to standard rodent chow (Cat #5053, obtained from Labdiet, Saint Louis, MO) and water (filtered and packed using a Hydrapak system) for 7 days until the start of the experiment. Zucker fa/fa obese rats were randomly assigned to two groups: 1) vehicle p.o.b.i.d. (oral administration, twice a day) for 78 days (n=7); and 2) 100 milligram per kilogram (mg/kg) body weight APL (p.o.b.i.d.) for 78 days (n=8). Zucker Fa/fa lean rats (n=4) were administered vehicle (p.o.b.i.d.) for 78 days. Phosphate-buffered saline (PBS), which is the solution used to dissolve APL, was used as vehicle solution. APL powder was dissolved under sterile conditions with PBS at a concentration of 100 mg/mL; volumes were adjusted for each animal accordingly to their body weight. […]
At the conclusion of the experimental time period (78 days for rats and 130 days for mice), the animals were subjected to a glucose tolerance test (GTT) as follows. […] Glucose levels were measured at 0, 15, 30, 45, 60, and 120 minutes after glucose administration. Glucose was measured using the AlphaTRAK 2 glucometer from Abbott

[2] = test system: 4-hydroxynonenal (4-HNE) in liver of Zucker (fa/fa) obese rats; assay: Hepatic 4-HNE immunofluorescence (protein carbonyls) in rat NASH model
Excerpt: Zucker (fa/fa) obese rats and Zucker (Fa/fa) lean rats (7-week old male animals obtained from Charles Rivers Laboratories, Wilmington, MA, USA) were maintained in individual cages (1 rat per cage to encourage sedentary activity) and had free access to standard rodent chow (Cat #5053 obtained from Labdiet, Saint Louis, MO) and water for (filtered and packed using a Hydrapak system) for 7 days until the start of the experiment. Zucker (fa/fa) obese rats were randomly assigned to two groups: 1) vehicle p.o.b.i.d. (oral administration, twice a day) for 78 days; and 2) 100 milligram per kilogram (mg/kg) body weight APL (p.o.b.i.d.) for 78 days. Zucker (Fa/fa) lean rats served as control. The APL dosage was 100 mg/kg/day. Animals were fed ad libitum. The animals were humanely euthanized, and the livers were removed for histological analysis. Liver samples in formalin were allowed to fix for 48 hours, and processed into FFPE blocks after fixations. Slides were stained with hematoxylin and eosin (H&E) and Mason trichrome staining.
Liver samples from the Zucker rats in Example 4 were stained with an anti-4HNE antibody from Abcam (catalog #ab46545) for immunofluorescent analysis of the presence of 4-HNE. The data are depicted in FIG. 9. FIG. 9A are representative images of 4-HNE immunofluorescence liver sections from Zucker (Fa/fa) lean rats, Zucker (fa/fa) obese rats administered vehicle, and Zucker (fa/fa) obese rats administered vehicle administered APL. FIG. 9B is a plot of the 4HNE immunofluorescence intensity per tissue area, and FIG. 9C is a plot of total tissue area. […] Cytotoxic lipid by products such as 4-HNE are known to be elevated in human NASH livers as compared to healthy livers. See e.g., Serviddio et al., Uncoupling protein-2 (UCP2) induces mitochondrial proton leak and increases susceptibility of non-alcoholic steatohepatitis (NASH) liver to ischaemia-reperfusion injury. Gut. 2008 July; 57(7):957-65. doi: 10.1136/gut.2007.147496. Epub 2008 Feb. 28. The data implies that 4-HNE plays a crucial role in the pathogenesis of NASH.

[3] = test system: C57BL/6J mice fed AMLN diet changed to HFD; assay: Liver function serum biomarkers in AMLN diet mouse model of NASH; conditions: 16 weeks (week 50-66)
Protocol: C57BL/6 mice were maintained in cages and had free access to standard rodent chow (Cat #5053, obtained from Labdiet, Saint Louis, MO) and water. C57BL/6J mice were fed either CHOW (negative control) or amylin liver NASH (AMLN) diet (58% high fat, 25% carbohydrate, 2% cholesterol) for twenty (20) weeks. Beginning at twenty (20) weeks, animals fed AMLN diet were changed to HFD. At fifty (50) weeks, animals were treated twice daily (b.i.d.) with oral administration (p.o.) of either vehicle (positive control) or APL (treated).

[4] = test system: C57BL/6J mice fed high fat/high fructose diet (HFD); assay: Glucose tolerance test (GTT) in diet-induced obesity (HFD) mouse model of NASH; conditions: APL 200 mg/kg/day p.o. in two doses, 130 days
Excerpt: C57BL/6J mice 5 week old male mice obtained from Jackson Laboratories, Bar Harbor, ME, USA) were maintained in cages (5 mice per cage) and had free access to standard rodent chow (Cat #5053, obtained from Labdiet, Saint Louis, MO) and water (filtered and packed using a Hydrapak system) for 5 days until the start of the experiment. The animals were then randomly assigned to five groups (n=5 for each group) receiving different diets and treatments as shown in Table A for 130 days. Each treatment was administered p.o.b.i.d. The APL dosage administered to each animal was 200 milligrams per kilogram of body weight divided in two dosages per day, via oral gavage and the pioglitazone dosage received each animal was 20 milligrams per kilogram of body weight divided in two dosages per day, via oral gavage. “HFD” is high fat/high fructose diet, which contains 58% fat, 25% carbohydrate and 17% protein. HFD was obtained from Research Diets, Inc. “Chow” refers to standard rodent chow (Cat #5053, obtained from Labdiet, Saint Louis, MO). Animals were fed ad libitum, except during the GTT experiments.
At the conclusion of the experimental time period (78 days for rats and 130 days for mice), the animals were subjected to a glucose tolerance test (GTT) as follows. Animals were fasted for 5 hours, weights, and their tails were clipped to measure fasting blood glucose levels. Immediately after, glucose (2 mg/g body weight) was administered orally. Glucose levels were measured at 0, 15, 30, 45, 60, and 120 minutes after glucose administration. Glucose was measured using the AlphaTRAK 2 glucometer from Abbott

[5] = Zucker obese rats, 100 mg/kg APL p.o. b.i.d., 78 days, ***p<0.001

SMILES: NCCCNCCCC[C@H](N)C(=O)O [APL, (S)-2-amino-6-((3-aminopropyl)amino)hexanoic acid]
- AUC of GTT, obese rats treated with APL vs obese rats treated with vehicle [1]: significantly lower
- hepatic 4-HNE intensity / total tissue area, treated vs negative control ([2]; Zucker obese rats treated with APL vs lean control): No significant statistical difference
- hepatic 4-HNE immunofluorescence intensity per tissue area, treated vs obese vehicle [2, 5]: significantly reduces
- total liver tissue area (FIG. 9C), treated vs obese vehicle [2, 5]: maintains the total liver tissue area
- serum ALP vs positive control ([3]; APL 50 mg/kg/day p.o. b.i.d.): significant reduction
- serum ALT vs positive control ([3]; APL 50 mg/kg/day p.o. b.i.d.): significant reduction
- serum AST vs positive control ([3]; APL 50 mg/kg/day p.o. b.i.d.): significant reduction
- serum nonesterified fatty acids (NEFA) vs positive control ([3]; APL 50 mg/kg/day p.o. b.i.d.): significant reduction
- serum triglycerides vs positive control ([3]; APL 50 mg/kg/day p.o. b.i.d.): significant reduction
- serum cholesterol vs positive control ([3]; APL 200 mg/kg/day p.o. b.i.d.): significant reduction
- AUC of GTT of HFD/vehicle mice compared to mice fed HFD and treated with APL ([4]; **p<0.01): significantly higher
- blood glucose levels in GTT, treated vs negative control (chow vehicle) ([4]; HFD mice, any time point 0-120 min): no significant statistical difference
- blood glucose levels in GTT, treated vs positive control (HFD vehicle) ([4]; HFD mice, at 15-min (p<0.0001), 60-min (p<0.05), 120-min (p<0.001)): significant statistical difference
